From the NIST ThermoML archive (doi:10.1016/j.jct.2008.10.002)
± gives the expanded uncertainty stated by the source.

Key:
[1] = 101.33 kPa, Liquid, Vibrating tube method
[2] = molar heat capacity at constant pressure; details: 101.33 kPa, Liquid, Small sample (50 mg) DSC
[3] = excess molar enthalpy (molar enthalpy of mixing); xn = mol fraction of the nth substance listed; details: 303.15 K, 101.3 kPa, Liquid

| mass density ([1]; 308.15 K) | molar heat capacity at constant pressure ([2]; 293.15 K) | molar heat capacity at constant pressure ([2]; 298.15 K) | molar heat capacity at constant pressure ([2]; 303.15 K) | molar heat capacity at constant pressure ([2]; 308.15 K) | molar heat capacity at constant pressure ([2]; 313.15 K) | molar heat capacity at constant pressure ([2]; 318.15 K) | Structure (SMILES) | mass density ([1]; 293.15 K) | mass density ([1]; 298.15 K) | mass density ([1]; 303.15 K) | mass density ([1]; 313.15 K) | mass density ([1]; 318.15 K) | excess molar enthalpy ([3]; x1 = 0.1023) | excess molar enthalpy ([3]; x1 = 0.2013) | excess molar enthalpy ([3]; x1 = 0.3036) | excess molar enthalpy ([3]; x1 = 0.4004) | excess molar enthalpy ([3]; x1 = 0.4891) | excess molar enthalpy ([3]; x1 = 0.5761) | excess molar enthalpy ([3]; x1 = 0.6659) | excess molar enthalpy ([3]; x1 = 0.8154) |
| --- | --- | --- | --- | --- | --- | --- | --- | --- | --- | --- | --- | --- | --- | --- | --- | --- | --- | --- | --- | --- |
| 1230.4 ± 0.4 kg/m3 | 392.2 ± 6.1 J/K/mol | 394.4 ± 6.1 J/K/mol | 396.8 ± 6.1 J/K/mol | 399.3 ± 6.2 J/K/mol | 402 ± 6.2 J/K/mol | 404.9 ± 6.3 J/K/mol | CCOS(=O)(=O)[O-].CCn1cc[n+](C)c1 [1-ethyl-3-methylimidazolium ethyl sulfate] | 1240.6 ± 0.4 kg/m3 | 1237.2 ± 0.4 kg/m3 | 1233.8 ± 0.4 kg/m3 | 1227 ± 0.4 kg/m3 | 1223.7 ± 0.4 kg/m3 | – | – | – | – | – | – | – | – |
| 1376.9 ± 0.6 kg/m3 | 361.1 ± 5.6 J/K/mol | 363.2 ± 5.6 J/K/mol | 365.3 ± 5.7 J/K/mol | 367.4 ± 5.7 J/K/mol | 369.6 ± 5.7 J/K/mol | 371.8 ± 5.8 J/K/mol | CCn1cc[n+](C)c1.O=S(=O)([O-])C(F)(F)F [1-ethyl-3-methylimidazolium trifluoromethanesulfonate] | 1389.5 ± 0.6 kg/m3 | 1385.3 ± 0.6 kg/m3 | 1381.1 ± 0.6 kg/m3 | 1372.7 ± 0.6 kg/m3 | 1368.6 ± 0.6 kg/m3 | – | – | – | – | – | – | – | – |

More lines, now with the values behind:

| Structure (SMILES) | mass density ([1]; 308.15 K) | molar heat capacity at constant pressure ([2]; 293.15 K) | molar heat capacity at constant pressure ([2]; 298.15 K) | molar heat capacity at constant pressure ([2]; 303.15 K) | molar heat capacity at constant pressure ([2]; 308.15 K) | molar heat capacity at constant pressure ([2]; 313.15 K) | molar heat capacity at constant pressure ([2]; 318.15 K) | mass density ([1]; 293.15 K) | mass density ([1]; 298.15 K) | mass density ([1]; 303.15 K) | mass density ([1]; 313.15 K) | mass density ([1]; 318.15 K) | excess molar enthalpy ([3]; x1 = 0.1023) | excess molar enthalpy ([3]; x1 = 0.2013) | excess molar enthalpy ([3]; x1 = 0.3036) | excess molar enthalpy ([3]; x1 = 0.4004) | excess molar enthalpy ([3]; x1 = 0.4891) | excess molar enthalpy ([3]; x1 = 0.5761) | excess molar enthalpy ([3]; x1 = 0.6659) | excess molar enthalpy ([3]; x1 = 0.8154) |
| --- | --- | --- | --- | --- | --- | --- | --- | --- | --- | --- | --- | --- | --- | --- | --- | --- | --- | --- | --- | --- |
| CCCCn1cc[n+](C)c1.COS(=O)(=O)[O-] [1-butyl-3-methylimidazolium methyl sulfate] | 1200.8 ± 0.4 kg/m3 | 413.7 ± 6.4 J/K/mol | 416.2 ± 6.4 J/K/mol | 418.5 ± 6.5 J/K/mol | 420.9 ± 6.5 J/K/mol | 423.3 ± 6.6 J/K/mol | 425.6 ± 6.6 J/K/mol | 1210.7 ± 0.4 kg/m3 | 1207.4 ± 0.4 kg/m3 | 1204.1 ± 0.4 kg/m3 | 1197.5 ± 0.4 kg/m3 | 1194.2 ± 0.4 kg/m3 | – | – | – | – | – | – | – | – |
| CCCCn1cc[n+](C)c1.O=S(=O)([O-])C(F)(F)F [1-butyl-3-methylimidazolium trifluoromethanesulfonate] | 1289.7 ± 0.5 kg/m3 | 421.6 ± 6.5 J/K/mol | 424.1 ± 6.6 J/K/mol | 426.7 ± 6.6 J/K/mol | 429.5 ± 6.7 J/K/mol | 432.4 ± 6.7 J/K/mol | 435.5 ± 6.7 J/K/mol | 1301.6 ± 0.5 kg/m3 | 1297.6 ± 0.5 kg/m3 | 1293.7 ± 0.5 kg/m3 | 1285.8 ± 0.5 kg/m3 | 1281.9 ± 0.5 kg/m3 | – | – | – | – | – | – | – | – |
| CCCC[n+]1cccc(C)c1.F[B-](F)(F)F [1-butyl-3-methylpyridinium tetrafluoroborate] + O | – | – | – | – | – | – | – | – | – | – | – | – | 0.261 ± 0.00574 kcal/mol | 0.421 ± 0.00884 kcal/mol | 0.514 ± 0.0108 kcal/mol | 0.554 ± 0.0115 kcal/mol | 0.543 ± 0.0112 kcal/mol | 0.497 ± 0.0105 kcal/mol | 0.428 ± 0.00908 kcal/mol | 0.256 ± 0.0055 kcal/mol |
| O [water] | 994.1 ± 0.3 kg/m3 | 75.4 ± 1.2 J/K/mol | 75.3 ± 1.2 J/K/mol | 75.3 ± 1.2 J/K/mol | 75.2 ± 1.2 J/K/mol | 75.2 ± 1.2 J/K/mol | 75.3 ± 1.2 J/K/mol | – | – | – | – | – | – | – | – | – | – | – | – | – |
